These results are taken from publication PMC11481179, “Development and Application of Reversible and Irreversible Covalent Probes for Human and Mouse Cathepsin‐K Activity Detection, Revealing Nuclear Activity” (Advanced Science, 2024).

The structures appear in SMILES notation.

One series deals with U-87 MG cells. The series can be described thus: Cell viability assay (methylene blue). The series is classed as cell-based, human. Conditions: 48 h incubation. On the procedure: U-2 OS, U-87 MG, and enriched monocyte cells were grown at 370 C with 5% of CO2 in the
respective medium as described previously. Cells were seeded (1500 cells/well in 96 wells
plate) one day before the incubation with indicated probe or inhibitor at various concentrations.
After 48 h cells were fixed, and viability was measured by quantitative colorimetric assay using
methylene blue according to the procedure reported by Ben-Bassat et al. The data were
expressed as a percentage of control; data represent the mean of 2 experiments with triplicates
for each treatment (± standard deviation).
Fluorescent imaging of CTSK activity in lung tissue: Freshly resected human lung cancer and
normal lung tissues or mouse normal lung and primary lung cancer were embedded in OCT,
frozen in liquid nitrogen, and kept at - 80° C. Tissues were sectioned into 10 μm thick slices
using a cryostat (Leica). The slides were defrosted and washed with 1X PBS. Then the slides
were pretreated with DMSO or GD30 (5 µM) in buffer acetate for 1 h at 37° C. Afterward,
GD32 (0.75uM) or DMSO in buffer acetate were applied to the slides for 4 h at 37° C. Three
short washes with 1X PBS were done and the slides were left in 1X PBS for overnight
incubation at 4° C. The next day, slides were mounted with DAPI-Fluoromount-G® before
visualization by confocal microscopy. Olympus FV10i was used for human samples, whereas
Zeiss was used for mouse samples.
Details of the synthesis of the compounds
Synthesis of Compound (2)

A further series deals with CTSS (Homo sapiens, UniProt P25774). The series can be described thus: In vitro kinetic evaluation of cathepsin inhibition, fluorescent substrate Z-FR-AMC. It is filed as biochemical. The following applies: for mode of inhibition: CTSS; for times less potent toward CTSS compared to CTSK: selectivity CTSK over CTSS. On the procedure:
used for TLC. Phosphate Buffer Saline (PBS) was purchased from Biological Industries (pH = […]
7.4) and was used as a buffer system in all experiments if not indicated otherwise. […]
Recombinant human CTSB, CTSK, CTSL, and CTSS were supplied by B. Turk (J.
Stefan Institute).[1] […]
In vitro kinetic evaluation of labeling recombinant cathepsins:
Reactions were monitored for 30 min at 37° C in 96-well black flat-bottom microplates […]
(Greiner, Germany) using Tecan INFINITE M1000 pro plate reader (Tecan, Switzerland), […]
substrates Z-RR-AMC (CTSL) or Z-FR-AMC (CTSS, CTSB and CTSK), and excitation and […]
emission wavelengths of 370 and 460 nm, respectively. Cathepsin concentrations in the assay were 0.4 nM (CTSK) or 5 nM (CTSS, CTSB, and CTSL). The buffer was 100 mM Na2HPO4/NaH2PO4, 50 mM NaCl, 5 mM DTT, 0,1% Peg-6000, pH 6. For irreversible inhibitors, reaction data were fitted to the one-phase association formula in GraphPad Prism 9 software: Y=Y0 + (Plateau-Y0)*(1-exp(-K*X)) where in this case Y0 and Y represent fluorescence signal at times 0 and t, respectively, K represent the observed reaction rate kobs and X the inhibitor concentration. Inactivation rates at each inhibitor concentration were obtained by subtracting the inactivation observed in the control sample: kobs – kctrl. The maximal rate of inactivation (kinact) was obtained as the asymptote from equation Y = kinact*X/(Kiapp + X) where X is inhibitor concentration, Y is the observed inactivation rate for each X, and Kiapp is the apparent inhibition constant. Ki values were calculated from IC50 or from Kiapp using formulas Ki = Kiapp / (1 + Km/S) and IC50 = E0/2 + Kiapp, where Km stands for Michalis-Menten constant, S for substrate concentration and E0 for cathepsin concentration.
The highest inhibitor concentrations in the assay were 50 µM. Measurements were performed in several independent duplicates. Average values are presented with standard deviations. […]

Chain of CTSS (P25774 115-331): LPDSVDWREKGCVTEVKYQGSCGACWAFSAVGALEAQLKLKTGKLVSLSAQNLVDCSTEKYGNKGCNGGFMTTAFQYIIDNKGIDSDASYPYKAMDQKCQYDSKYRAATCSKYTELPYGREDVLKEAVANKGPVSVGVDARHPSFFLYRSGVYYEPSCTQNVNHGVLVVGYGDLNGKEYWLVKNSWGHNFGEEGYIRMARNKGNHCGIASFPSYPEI

In the case of `C#CCNC(=O)[C@H](CC(C)C)N[C@@H](c1ccc(-c2ccc(S(=O)(=O)CCNC(=O)OC(C)(C)C)cc2)cc1)C(F)(F)F` [GD30], in the series with U-87 MG cells, the cytotoxicity entry is listed as “No toxicity”.

In the case of `C#CCNC(=O)[C@H](CC(C)C)N[C@@H](c1ccc(-c2ccc(S(=O)(=O)CCNC(=O)CCCCC[N+]3=C(/C=C/C=C/C=C4/N(C)c5ccc(S(=O)(=O)O)cc5C4(C)C)C(C)(C)c4cc(S(=O)(=O)O)ccc43)cc2)cc1)C(F)(F)F` [GD32], on CTSS, the mode of inhibition result is reported as “Irreversible” and the “times less potent toward CTSS compared to CTSK” value was 115 times. Moreover, at CTSS (CTSS 5 nM, pH 6, 37 °C), the Ki is 980 nM, the kinact was found to be 0.0022 ± 0.00009 s⁻¹ and the kinact/Ki is 2220 ± 300 M⁻¹ s⁻¹. In the series with U-87 MG cells, the cytotoxicity result is “No toxicity”.

`CC(C)C[C@H](N[C@@H](c1ccc(-c2ccc(S(=O)(=O)CCNC(=O)CCCCC[N+]3=C(/C=C/C=C/C=C4/N(C)c5ccc(S(=O)(=O)O)cc5C4(C)C)C(C)(C)c4cc(S(=O)(=O)O)ccc43)cc2)cc1)C(F)(F)F)C(=O)NC1(C#N)CC1` [GD37]: at CTSS, the mode of inhibition entry is on record as “Reversible” and the “times less potent toward CTSS compared to CTSK” value is 150 times. For the same molecule, the affinity at CTSS (CTSS 5 nM, pH 6, 37 °C) corresponds to a Ki of 60 nM.
